Data as given in PMC10388362, “Fluorescent Ligands Enable Target Engagement Studies for the Intracellular Allosteric Binding Site of the Chemokine Receptor CXCR2” (Journal of Medicinal Chemistry, 2023).
Several values for one entry are separate records, joined by “and”; a condition that tells them apart may be missing. Identical values can stand only once. Like-named read-outs stand apart in the source and are kept apart here. Values belong to the compound of their own block, whether it stands above or below them.

Tests used:
CXCR2 [1] = target: T1, CXCR2 (Homo sapiens, UniProt P25025); experiment: Membrane-based NanoBRET competition assay with 9a; type: binding; details: for % comp. @ 70 μM: competitor 70 μM, 9a (50 nM)
T1 construct: Promega pNLF1-C (Nluc) #CXCR20TN00; host or cells: HEK293T, transient transfection (PEI)
T1 sequence (P25025 1-360): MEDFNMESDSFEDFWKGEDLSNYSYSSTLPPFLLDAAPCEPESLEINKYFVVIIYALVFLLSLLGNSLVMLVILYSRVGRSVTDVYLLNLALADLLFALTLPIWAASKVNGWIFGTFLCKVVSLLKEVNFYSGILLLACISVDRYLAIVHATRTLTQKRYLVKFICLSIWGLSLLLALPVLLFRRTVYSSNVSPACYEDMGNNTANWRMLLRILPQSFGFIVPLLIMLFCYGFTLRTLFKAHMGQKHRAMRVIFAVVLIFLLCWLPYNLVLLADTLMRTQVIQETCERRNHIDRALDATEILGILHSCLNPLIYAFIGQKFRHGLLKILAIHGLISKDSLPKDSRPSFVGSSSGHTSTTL
Experimental: Then, 20 μL of the membrane preparation (diluted in assay buffer, 2 μg total protein/well) was added and the plates were incubated for 90 min at 37 °C. Subsequently, 5 μL of a furimazine solution (final assay dilution: 1:5000 in the assay buffer) was added to each well (final assay volume: 35 μL). […] To determine the inhibition constants (Ki) of the nonlabeled ligands, data were analyzed using the one-site-fit Ki equation in PRISM9.5 (GraphPad).

CXCR1 = target: T2, CXCR1 (Homo sapiens, UniProt P25024); experiment: Membrane-based NanoBRET saturation assay, selectivity (CXCR1_Nluc membranes); type: binding; details: cell-free, CXCR1_Nluc membranes
T2 construct: host or cells: HEK293T, transient; membrane preparation
T2 sequence (P25024 1-350): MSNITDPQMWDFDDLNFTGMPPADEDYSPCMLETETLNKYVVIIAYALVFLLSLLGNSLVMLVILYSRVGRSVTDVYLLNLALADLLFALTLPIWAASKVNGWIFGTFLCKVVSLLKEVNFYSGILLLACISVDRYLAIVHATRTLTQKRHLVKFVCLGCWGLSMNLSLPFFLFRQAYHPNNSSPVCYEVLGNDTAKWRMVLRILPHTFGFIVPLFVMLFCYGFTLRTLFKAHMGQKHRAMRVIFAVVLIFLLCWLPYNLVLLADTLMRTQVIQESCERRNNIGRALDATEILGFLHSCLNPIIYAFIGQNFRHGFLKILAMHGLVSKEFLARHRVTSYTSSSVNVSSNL
Experimental: (§1) For the establishment of our NanoBRET binding assay, we referred to a recently published protocol.[45] The fluorescent ligands (9a–c) were dissolved in DMSO (1 mM) and further diluted to varying concentrations in an assay buffer (50 mM Na2HPO4, 50 mM KH2PO4, pH 7.4, 1 mg/mL saponin, 5% FBS) and 5 μL of these dilutions were pipetted to a 384-well plate. To determine the total binding, 5 μL of the assay buffer was added to the corresponding wells, while 5 μL of a solution of 3 in the assay buffer (final assay concentration: 1 μM) was used to determine nonspecific binding. Then, 20 μL of the membrane preparations diluted in the assay buffer (2 μg total protein/well) were added and the plates were incubated for 90 min at 37 °C. Subsequently, 5 μL of a furimazine solution (Promega, Mannheim, Germany, final assay dilution: 1:5000) was added to each well (final assay volume: 35 μL) before measuring luminescence with a CLARIOstar microplate reader using 620/10 and 475/30 nm emission filters after 5 min of incubation in the dark. Bioluminescence resonance energy transfer (BRET) was determined as the ratio of acceptor fluorescence and donor luminescence. The algorithms for one-site saturation binding from PRISM9.5 (GraphPad) were utilized to analyze total, nonspecific, and specific binding. Specific binding signals were calculated as a difference of total and nonspecific binding. If required, netBRET values were calculated as the difference between total BRET values and the values obtained in the absence of a fluorescent ligand. For selectivity studies with CCR2, CCR7, CCR9, and CXCR1, we modified the procedure described above.

CXCR2 [2] = target: T1, CXCR2; experiment: Membrane-based NanoBRET saturation assay (CXCR2_Nluc membranes); type: binding; details: cell-free
Experimental: Membranes from HEK293T cells transiently expressing the respective GPCR were prepared as follows. The medium of the transfected cells was refreshed after 24 h before cells were harvested 48 h post-transfection. The growth medium was removed, and the cells were carefully washed with cold phosphate-buffered saline (10 mL per Ø 15 cm dish). The cells were detached with 15 mL of ice-cold Tris-EDTA buffer (10 mM Tris, 0.5 mM EDTA, 5.4 mM KCl, 140 mM NaCl, pH 7.4) and subsequently centrifuged with 218g for 8 min. The supernatant was removed and the cells were resuspended in 10 mL of Tris-EDTA buffer. The cells were lysed with an Ultraturrax (20,000 rpm) used five times for 5 s with a 25 s break on ice in between. The lysate was centrifuged at 50,830g for 18 min at 4 °C. The supernatant was discarded, and the pellet was homogenized in a membrane buffer (50 mM Tris, 1 mM EDTA, 5 mM MgCl2, 100 μg/mL bacitracin, 5 μg/mL soybean trypsin inhibitor, pH 7.4) with a glass-teflon homogenizer. Aliquots of 250 μL were shock-frozen in liquid nitrogen and directly stored at −80 °C. Finally, the protein concentration was determined using the Lowry method.[43]
as §1

CXCR2 [3] = target: T1, CXCR2; details: cited from earlier work
CXCR2 [4] = target: T1, CXCR2; experiment: Fluorescence microscopy, displacement of 9a in HEK293 cells stably expressing CXCR2; type: cell-based; details: 9a 500 nM
Experimental: For live cell microscopy, HEK293 cells stably expressing CXCR2 were seeded onto poly-D-lysine (PDL)-coated 8-well μ-slides (Ibidi) at a density of 1.5 × 10^5 cells per well and cultured overnight at 37 °C and 5% CO2. […] Afterward, the fluorescent CXCR2 ligand ((9a) final concentration 500 nM) was added for 60 min at 37 °C, and the cells were washed once with PBS before imaging. For immunostaining, the cells were first fixed with 4% paraformaldehyde solution, washed with PBS, and then blocked for 1 h with 10% goat serum and 1% fatty acid-free bovine serum albumin (BSA) in PBS at 37 °C. As primary antibody, anti-CXCR2 mouse IgG (R&D Systems, catalog # 48311, 1:100 in blocking solution) was added, and the cells were incubated for 1 h at 37 °C. After three washes with PBS, goat anti-mouse IgG (H+L) conjugated to FITC (Sigma-Aldrich, catalog # AP124F, 1:500 in blocking solution) was added for 1 h at 37 °C. The cells were again washed three times with PBS and counterstained with 4′,6-diamidin-2-phenylindole (DAPI) solution (0.1 μg/mL) for 15 min in the dark at room temperature, followed by three washes with PBS. […] Afterward, the fluorescent CXCR2 ligand ((9a) final concentration 500 nM) was added for 30 min at 37 °C and the cells were imaged. Microscopy was carried out on an AxioObserver.Z1 microscope (Carl Zeiss, Jena, Germany) equipped with an ApoTome imaging system and a Heating unit XL S using a Plan-Apochromat ×63/1.40 Oil objective (filter set 43 (red), 38 (green), 49 (blue)). Image processing and line scan analysis were performed with Zen blue Imaging software. The fluorescence intensity values were normalized to vehicle control.

[5] = competition with 9a (50 nM), CXCR2_Nluc membranes, read-out: Ki
[6] = competition with 9a (50 nM), CXCR2_Nluc membranes, read-out: pKi (converted)
[7] = membranes from HEK293T cells transiently expressing CXCR2_Nluc, read-out: Kd (equilibrium saturation binding)
[8] = Ki of nonfluorescent ligands, cell-free, read-out: cell-free Kd or Ki for CXCR2

cell-free Kd or Ki for CXCR2 [nM] (CXCR2 [1]; Ki of nonfluorescent ligands, cell-free): n.i.
Ki (CXCR2 [1]; [5]): ≥ 261 nM
% comp. @ 70 μM (CXCR2 [1]; CXCR2_Nluc membranes): -3%
SMILES: CC(C)(C)c1ccc(S(=O)(=O)Nc2ccc(Cl)cc2C(=O)c2cc[n+]([O-])cc2)cc1 [compound 23, vercirnon]

Ki (CXCR2 [1]; [6]): 0.427 nM
SMILES: COCCn1cc(CNC(=O)c2cccc(Nc3c(N[C@@H](c4ccc(C)o4)C(C)(C)C)c(=O)c3=O)c2O)nn1 [compound 8, (R)-3-((2-((2,2-Dimethyl-1-(5-methylfuran-2-yl)propyl)amino)-3,4-dioxocyclobut-1-en-1-yl)amino)-2-hydroxy-N-((1-(2-methoxyethyl)-1H-1,2,3-triazol-4-yl)methyl)benzamide]

Ki (CXCR2 [1]; [5]): ≥ 261 nM
% comp. @ 70 μM (CXCR2 [1]; CXCR2_Nluc membranes): 28%
SMILES: CC(C)(C)c1ccc(S(=O)(=O)Nc2ccc(Cl)cc2-c2cncnc2N)cc1 [compound 24]

Ki (CXCR2 [1]; [8]): 4900 nM
Ki (CXCR2 [1]; [5]): ≥ 261 nM
Ki (CXCR2 [1]; [6]): 4680 nM
SMILES: O=C(O)c1ccccc1Oc1ccc(Cl)cc1NS(=O)(=O)c1ccc(Cl)c(Cl)c1 [compound 21]

Ki (CXCR2 [1]; [8]): 261 nM
Ki (CXCR2 [1]; [5]): ≥ 261 nM and 300 nM
Ki (CXCR2 [1]; [6]): 251 nM
SMILES: Cc1ccc([C@H](NC2=NS(=O)(=O)N=C2Nc2ccc(C)c(C(=O)N(C)C)c2O)C(C)(C)C)o1 [compound 22]

Ki (CXCR2 [1]; [8]): 2700 nM
Ki (CXCR2 [1]; [5]): ≥ 261 nM
Ki (CXCR2 [1]; [6]): 2630 nM
SMILES: CC(=O)C1=C(O)C(=O)N(c2ccc(Br)cc2F)C1C1CCCCC1 (stereo not drawn) [compound 20]

Continued, compound first:

SMILES: Cc1ccc([C@H](Nc2c(Nc3cccc(C(=O)NCc4cn(CCCNC(=O)c5ccc(-c6c7ccc(=[N+](C)C)cc-7oc7cc(N(C)C)ccc67)c(C(=O)[O-])c5)nn4)c3O)c(=O)c2=O)C(C)(C)C)o1 [9c, (R)-5-((3-(4-((3-((2-((2,2-Dimethyl-1-(5-methylfuran-2-yl)propyl)amino)-3,4-dioxocyclobut-1-en-1-yl)amino)-2-hydroxybenzamido)methyl)-1H-1,2,3-triazol-1-yl)propyl)carbamoyl)-2-(6-(dimethylamino)-3-(dimethyliminio)-3H-xanthen-9-yl)benzoate]
Kd (CXCR1): 49.3 ± 0.7 nM
Kd (CXCR2 [2]; Kd of fluorescent ligands, read-out: cell-free Kd or Ki for CXCR2): 2 nM
Kd (CXCR2 [2]; [7]): 2.62 ± 0.78 nM

SMILES: O=C(Nc1ccc(Cl)c(S(=O)(=O)N2CCNCC2)c1O)Nc1cccc(F)c1Cl [compound 6, elubrixin]
IC50 (CXCR2 [3]; reported value ref 17): 22 nM

SMILES: Cc1ccc([C@H](Nc2c(Nc3cccc(C(=O)NCc4cn(CCOCCOCCNC(=O)c5ccc(C(=O)[O-])c(-c6c7ccc(=[N+](C)C)cc-7oc7cc(N(C)C)ccc67)c5)nn4)c3O)c(=O)c2=O)C(C)(C)C)o1 [9b, (R)-4-((2-(2-(2-(4-((3-((2-((2,2-Dimethyl-1-(5-methylfuran-2-yl)propyl)amino)-3,4-dioxocyclobut-1-en-1-yl)amino)-2-hydroxybenzamido)methyl)-1H-1,2,3-triazol-1-yl)ethoxy)ethoxy)ethyl)carbamoyl)-2-(6-(dimethylamino)-3-(dimethyliminio)-3H-xanthen-9-yl)benzoate]
Kd (CXCR1): 122 ± 5.6 nM
Kd (CXCR2 [2]; [7]): 4.62 ± 0.87 nM

SMILES: CC[C@@H](Nc1c(Nc2ccnc(C(=O)N(C)C)c2O)c(=O)c1=O)c1cc(C(C)C)co1 [compound 1]
IC50 (CXCR2 [3]; reported value ref 4): 0.62 nM

SMILES: CC[C@@H](Nc1c(Nc2cccc(C(=O)N(C)C)c2O)c(=O)c1=O)c1ccc(C)o1 [compound 2, navarixin]
effect of preincubation on membrane-associated 9a fluorescence (CXCR2 [4]; fixed HEK293 cells stably expressing CXCR2, competitor 10 μM): virtually blunted all membrane-associated probe fluorescence
effect of preincubation on membrane-based 9a fluorescence (CXCR2 [4]; live cell imaging, HEK293 cells stably expressing CXCR2, competitor 10 μM): very strong reduction in membrane-based fluorescence
